The values below come from patent US20250312469A1 (CANGET BIOTEKPHARMA, priority 2024, published 2025).

Series [1] has as its target T1, USP2a (Homo sapiens, UniProt O75604).
T1 sequence (O75604 1-605): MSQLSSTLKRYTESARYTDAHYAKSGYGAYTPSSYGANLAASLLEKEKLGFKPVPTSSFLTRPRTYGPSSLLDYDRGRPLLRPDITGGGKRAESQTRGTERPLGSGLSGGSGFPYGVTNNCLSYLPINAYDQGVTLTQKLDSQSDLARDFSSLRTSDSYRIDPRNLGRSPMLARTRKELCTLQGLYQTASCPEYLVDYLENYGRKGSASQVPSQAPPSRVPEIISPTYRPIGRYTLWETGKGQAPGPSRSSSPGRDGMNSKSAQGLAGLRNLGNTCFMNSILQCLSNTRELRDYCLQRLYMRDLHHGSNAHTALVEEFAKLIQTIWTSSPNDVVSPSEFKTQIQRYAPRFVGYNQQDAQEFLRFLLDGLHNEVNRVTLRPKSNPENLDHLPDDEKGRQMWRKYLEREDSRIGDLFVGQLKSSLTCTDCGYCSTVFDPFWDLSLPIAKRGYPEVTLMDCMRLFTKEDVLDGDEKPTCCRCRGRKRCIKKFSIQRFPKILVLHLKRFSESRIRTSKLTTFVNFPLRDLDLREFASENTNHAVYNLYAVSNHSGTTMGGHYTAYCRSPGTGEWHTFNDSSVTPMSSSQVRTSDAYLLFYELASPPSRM
As to the kind of experiment: Cell-based polyUb/MdmX and USP2a mRNA/protein analysis in PCa cells. Also noted: purchased Invitrogen ProtoArray Human Protein Microarray v5.0.

Series [2] in a line: PK after single i.v. dose in tumor bearing mice.
In series [3] the target is T1, USP2a. The series can be described thus: ProtoArray protein microarray probed with 3H-FL118. Conditions: 3H-FL118 0.5 μM. The series is classed as binding. Also noted: purchased Invitrogen ProtoArray Human Protein Microarray v5.0. As for the experimental part:
(§1) The flask was then immersed in silicone oil bath at 180° C.-190° C. for 6 hours. The tritium gas was removed. The reaction mixture was dissolved in 1 mL of DMSO and back-exchanged 10× with 50% ethanol. Injected directly to CapCeLL PAK C-18 column (4.6×250 mm), mobile phase 30% CH3CN, 0.1% TFA, flow 1 mL/min, U.V. =200 nm, r.t. =40 min. After purification, total activity was 5 mCi (solid) with a specificity of 5.6 Ci/mmol at a radiochemical purity of >97% for ^3H-FL118. […] The flask was then immersed in silicone oil bath at 190° C. for 24 h. The tritium gas was removed. The reaction mixture was dissolved in 1 mL of DMSO and back-exchanged 10× with 50% ethanol and injected directly to CapCeLL Pak C-18 column (4.6×250 mm), mobile phase 30% CH3CN, 0.1% TFA, […], U.V. =200 nm, r.t. =40 min. After purification total activity was 5 mCi (solid) with a specificity of 16.5 Ci/mmol at a radiochemical purity of ≥81% for ^3H-FL118.
(§2) Use of ^3H-FL118 as a radioactive probe to search FL118-binding proteins through screening of human protein microarray (ProtoArray R with 9,400 human proteins, Invitrogen): The study process includes the following steps.
(§3) 1. Blocking the ProtoArray: (i) Immediately place the mailer containing the Human Protein Microarray v5.0 at 4° C. upon removal from storage at −20° C. and equilibrate the mailer at 4° C. for at least 15 minutes prior to use. (ii) Place Human Protein Microarrays with the barcode facing up in the bottom of a 4-chamber incubation tray such that the barcode end of the microarray is near the tray end containing an indented numeral. […] Avoid pipetting buffer directly onto the array surface. (iv) Incubate the tray for 1 hour at 4° C. on a shaker set at 50 rpm (circular shaking). (v) After incubation, remove Protein Microarrays from FL118 Assay Buffer. To remove array from the 4-chamber incubation tray, insert the tip of forceps into the indented numeral end and gently pry the array upward. Using a gloved hand, pick up the microarray by holding the array by its edges only. Tap to remove excess liquid from slide surface. (vi) Proceed immediately to Probing the Array.
(§4) 2. Probing the ProtoArray: (i) Place each ProtoArray horizontally in a separate sterile 50 mL conical tube with about ⅓ of the array extended outside of the tube. The barcoded end of the array should protrude from the tube (face up). (ii) For each ProtoArray, add 100 μL of probing mixture including ^3H-FL118 (final concentration of ^3H-FL118 at 0.1 μM and 0.5 μM, respectively on different ProtoArray) and the positional mapping reagent ^3H-estradiol and pipet the mixture gently onto the surface of the ProtoArray. (iii) Gently place a coverslip over the surface of the ProtoArray using forceps to avoid capturing bubbles. […]

A further series concerns the target T2, UbE2T (Homo sapiens, UniProt Q9NPD8).
T2 sequence (Q9NPD8 1-197): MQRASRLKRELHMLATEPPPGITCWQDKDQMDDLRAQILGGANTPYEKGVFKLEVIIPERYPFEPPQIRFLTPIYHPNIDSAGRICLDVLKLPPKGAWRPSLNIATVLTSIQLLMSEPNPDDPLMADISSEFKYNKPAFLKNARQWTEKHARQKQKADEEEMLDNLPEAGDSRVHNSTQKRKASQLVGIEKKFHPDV
The series can be described thus: ProtoArray protein microarray probed with 3H-FL118. The series is classed as binding. Also noted: purchased Invitrogen ProtoArray Human Protein Microarray v5.0. Conditions: 3H-FL118 0.5 μM. As to the method: as §1, §2, §3, §4

For `CCC1(O)C(=O)OCc2c1cc1n(c2=O)Cc2cc3cc4c(cc3nc2-1)OCO4` (centres unmarked) [FL118], on USP2a [1], the “USP2a mRNA and protein level” value is “USP2a increases”. The “polyUb-mediated MdmX degradation in cells” value on USP2a [1] was “promotes polyUb-mediated MdmX degradation”. In addition, the Vz in series [2] (FaDu tumor) was 33052 g/kg; in series [2] (SW620 tumor), 30742 g/kg. Also, the Signal used at USP2a [3] is 1959 3H counts per min; at UbE2T it was 1812 3H counts per min. The Z-Score at USP2a [3] was determined as 3.7; on UbE2T, 3.2.
